From patent US20120122981A1, “Biomarkers Related to Insulin Resistance and Methods using the Same” (priority 2009, published 2012)

Assays:
[1] = pre-diabetic patients, DPP; cited from earlier work
[2] = Predicted and actual Rd before and after treatment with the insulin sensitizer muraglitozar; format: in vivo, human; conditions: 16 subjects, pre- vs post-treatment, plasma biomarkers 1-25
Method: C-Mur1, baseline prior to muraglitazar treatment; D-Mur2, following treatment with muraglitazar, a peroxisome proliferator-activated receptor agonist and an insulin sensitizer drug. […] Biomarkers 1-25 listed in Table 4 were measured in plasma samples collected from 16 subjects that were taking the insulin sensitizer muraglitozar. The samples were collected pre-(C-Mur—1) and post-treatment (D-Mur—2) with muraglitozar.

Row | SMILES | reduction of the rate of progression to diabetes [1] [%] | change in predicted Rd with treatment, in agreement with actual Rd by HI clamp [2]
1 | CN(C)C(=N)N=C(N)N [metformin] | 38 | –
2 | COc1ccc(OC(=O)N(CC(=O)O)Cc2ccc(OCCc3nc(-c4ccccc4)oc3C)cc2)cc1 [muraglitozar] | – | increased
